In US11028087B2, “2,6-disubstituted-9-cyclopentyl-9H-purines, use thereof as medicaments, and pharmaceutical compositions” (UNIVERZITA PALACKEHO V OLOMOUCI, priority 2017, dated 2021):

Assays:
FLT3 WT = target: T1, FLT3 WT (Homo sapiens, UniProt P36888); experiment: Kinase inhibition assay with [γ-33P]ATP; type: biochemical; conditions: AGLT substrate, 1 μM ATP
T1 construct: purchased ProQinase GmbH
T1 sequence (P36888 27-993): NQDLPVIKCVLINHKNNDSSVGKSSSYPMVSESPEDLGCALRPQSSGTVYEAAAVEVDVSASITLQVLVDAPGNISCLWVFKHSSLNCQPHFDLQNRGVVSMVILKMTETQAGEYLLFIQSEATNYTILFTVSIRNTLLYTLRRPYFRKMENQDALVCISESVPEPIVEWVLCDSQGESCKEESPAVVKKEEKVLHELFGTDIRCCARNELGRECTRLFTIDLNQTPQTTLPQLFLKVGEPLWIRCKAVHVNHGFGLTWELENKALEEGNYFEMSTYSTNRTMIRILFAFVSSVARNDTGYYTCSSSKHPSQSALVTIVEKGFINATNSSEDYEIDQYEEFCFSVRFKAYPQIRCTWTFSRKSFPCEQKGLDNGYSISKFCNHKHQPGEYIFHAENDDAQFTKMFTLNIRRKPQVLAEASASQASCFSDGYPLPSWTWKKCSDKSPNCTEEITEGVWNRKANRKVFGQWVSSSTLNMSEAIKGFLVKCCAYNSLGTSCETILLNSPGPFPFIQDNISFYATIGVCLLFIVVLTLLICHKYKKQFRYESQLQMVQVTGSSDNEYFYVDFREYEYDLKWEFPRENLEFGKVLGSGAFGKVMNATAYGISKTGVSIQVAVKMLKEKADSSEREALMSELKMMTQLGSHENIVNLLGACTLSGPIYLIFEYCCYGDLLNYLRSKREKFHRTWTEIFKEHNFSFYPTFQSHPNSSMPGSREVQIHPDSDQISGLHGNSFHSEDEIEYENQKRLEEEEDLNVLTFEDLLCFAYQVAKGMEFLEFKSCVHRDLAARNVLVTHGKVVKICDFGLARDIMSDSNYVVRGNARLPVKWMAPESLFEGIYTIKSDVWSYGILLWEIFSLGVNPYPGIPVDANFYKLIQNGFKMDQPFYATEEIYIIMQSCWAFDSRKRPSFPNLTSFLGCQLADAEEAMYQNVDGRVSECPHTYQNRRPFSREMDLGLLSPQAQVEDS
Procedure, shortened: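 Radiometric [γ-33P]ATP assay in HEPES pH 7.5 with Mg2+/Mn2+: CDK1/Cyclin B (Sf9-expressed) and purchased CDK5/p35 with 1 mg/mL histone H1 at 15 and 0.15 μM ATP respectively; FLT3 WT and FLT3-ITD with AGLT substrate at 1 μM ATP. Reactions stopped with H3PO4, spotted onto phosphocellulose and washed.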

K562 = experiment: Calcein AM cytotoxicity assay; type: cell-based; conditions: Homo sapiens, 72 h; K562; Calcein AM, three days; read-out: EC50 values (μM) K562
Procedure, shortened: (§1)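 Calcein AM at 1 μg/ml final, 1 h incubation: green fluorescence from calcein formed by esterases of viable cells serves as the read-out. Compounds were added at various concentrations in triplicate the day after seeding, with drug exposure lasting three days.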

MCF-7 = experiment: Calcein AM cytotoxicity assay; type: cell-based; conditions: Homo sapiens, MCF7, 72 h; MCF-7; Calcein AM, three days; read-out: EC50 values (μM) MCF-7
Procedure, shortened: as §1

[1] = system: U937 (monocytic leukemia, wt FLT3); experiment: Calcein AM cytotoxicity assay; type: cell-based; conditions: Homo sapiens, U-937, 72 h; U937; Calcein AM, three days; read-out: EC50 values (μM) U937
Procedure, shortened: as §1

[2] = system: MV4-11 (acute myeloid leukemia, FLT3-ITD positive); experiment: Calcein AM cytotoxicity assay; type: cell-based; conditions: Homo sapiens, 72 h; MV4-11; Calcein AM, three days after drug addition; read-out: EC50 values (μM) MV4-11
Procedure, shortened: as §1

[3] = system: THP-1 (acute myeloid leukemia, wt FLT3); experiment: Calcein AM cytotoxicity assay; type: cell-based; conditions: Homo sapiens, 72 h; THP-1; Calcein AM, three days; read-out: EC50 values (μM) THP-1
Procedure, shortened: as §1

[4] = system: EOL-1 (eosinophilic leukaemia, carrying the fusion FIP1L1-PDGFRA); experiment: Calcein AM cytotoxicity assay; type: cell-based; conditions: Homo sapiens, EOL1, 72 h; EOL-1; Calcein AM, three days; read-out: EC50 values (μM) EOL-1
Procedure, shortened: as §1

[5] = system: MOLM-13 (acute myeloid leukemia, FLT3-ITD positive); experiment: Calcein AM cytotoxicity assay; type: cell-based; conditions: Homo sapiens, 72 h; MOLM-13; Calcein AM, three days; read-out: EC50 values (μM) MOLM-13
Procedure, shortened: as §1

| Structure (SMILES) | IC50 (FLT3 WT) | EC50 (K562) | EC50 (MCF-7) | EC50 [1] | EC50 [2] | EC50 [3] | EC50 [4] | EC50 [5] |
| --- | --- | --- | --- | --- | --- | --- | --- | --- |
| NC1CCC(Nc2nc(Nc3ccc(CN4CCOCC4)cc3)c3ncn(C4CCCC4)c3n2)CC1 (stereo not shown) [Compound 264] | 0.013 µM | – | – | – | – | – | – | – |
| NC1CCC(Nc2nc(Nc3ccc(CN4CCNCC4)cc3)c3ncn(C4CCCC4)c3n2)CC1 (stereo not shown) [Compound 2] | 0.015 µM | 1.57 µM | 0.52 µM | 1.8 µM | 0.01 µM | 2.28 µM | 0.023 µM | 0.015 µM |
| NC1CCC(Nc2nc(Nc3ccc(N4CC5(COC5)C4)cc3)c3ncn(C4CCCC4)c3n2)CC1 (stereo not shown) [Compound 272] | 0.013 µM | 1.18 µM | 1.05 µM | 0.638 µM | 0.003 µM | 0.693 µM | 0.022 µM | 0.004 µM |
| CN1CCN(C(=O)c2ccc(Nc3nc(NC4CCC(N)CC4)nc4c3ncn4C3CCCC3)cc2)CC1 (stereo not shown) [Compound 3] | 0.021 µM | 1.23 µM | 0.273 µM | 3.66 µM | 0.018 µM | 3.02 µM | 0.015 µM | 0.02 µM |
| CN(C)CCNc1nc(Nc2ccc(CN3CCOCC3)nc2)c2ncn(C3CCCC3)c2n1 [Compound 172] | 0.011 µM | 1.16 µM | 0.43 µM | 1.48 µM | 0.003 µM | 1.52 µM | 0.014 µM | 0.017 µM |
| NCCCCNc1nc(Nc2ccc(N3CCOCC3)cc2)c2ncn(C3CCCC3)c2n1 [Compound 265] | 0.023 µM | 3.74 µM | 3.25 µM | > 4 µM | 0.017 µM | > 4 µM | 0.039 µM | 0.016 µM |
| NCCCCNc1nc(Nc2ccc(CN3CCOCC3)cc2)c2ncn(C3CCCC3)c2n1 [Compound 270] | 0.006 µM | 1.81 µM | 2.1 µM | > 4 µM | 0.029 µM | 1.24 µM | – | 0.014 µM |
| CN1CC2(C1)CN(c1ccc(Nc3nc(NC4CCC(O)CC4)nc4c3ncn4C3CCCC3)cc1)C2 (stereo not shown) [Compound 7] | 0.026 µM | – | – | – | – | – | – | – |
| CN1CCN(C(=O)c2ccc(Nc3nc(NCCCCN)nc4c3ncn4C3CCCC3)cc2)CC1 [Compound 27] | 0.019 µM | 0.57 µM | 0.265 µM | 0.794 µM | 0.024 µM | 0.624 µM | 0.053 µM | 0.019 µM |
| NC1CCC(Nc2nc(Nc3ccc(N4CCOCC4)cc3)c3ncn(C4CCCC4)c3n2)CC1 (stereo not shown) [Compound 1] | 0.023 µM | 1.19 µM | 0.32 µM | 2.13 µM | 0.001 µM | 1.01 µM | 0.008 µM | 0.004 µM |
| NC1CCC(Nc2nc(Nc3ccc(N4CCCC4)cc3)c3ncn(C4CCCC4)c3n2)CC1 (stereo not shown) [Compound 263] | 0.021 µM | 1.27 µM | 1.33 µM | 3.17 µM | 0.018 µM | 3.11 µM | 0.03 µM | 0.024 µM |
| NCCNc1nc(Nc2ccc(CN3CCNCC3)cc2)c2ncn(C3CCCC3)c2n1 [Compound 14] | 0.014 µM | 1.56 µM | 1.52 µM | 1.45 µM | 0.083 µM | 1.86 µM | 0.054 µM | 0.025 µM |
| NCCCCNc1nc(Nc2ccc(N3CC4(COC4)C3)nc2)c2ncn(C3CCCC3)c2n1 [Compound 28] | 0.01 µM | 1.05 µM | 0.925 µM | 0.605 µM | 0.001 µM | 0.514 µM | 0.013 µM | 0.004 µM |
| CN(C)CCCNc1nc(Nc2ccc(C(=O)N3CCOCC3)nc2)c2ncn(C3CCCC3)c2n1 [Compound 179] | 0.09 µM | – | 2.21 µM | – | 0.013 µM | > 4 µM | 0.225 µM | 0.078 µM |
| CCN1CCN(c2ccc(Nc3nc(NCCCCN)nc4c3ncn4C3CCCC3)cc2)CC1 [Compound 266] | 0.013 µM | 1.43 µM | 2.15 µM | 3.77 µM | 0.018 µM | 2.99 µM | 0.074 µM | 0.014 µM |
